Assay results: ChEMBL document CHEMBL1201862, “PubChem BioAssay data set” (2004)
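Cells were grown in 96-well plates and exposed to each compound for 48 hours at five concentrations; endpoints were interpolated linearly between bracketing concentrations, or set to the highest concentration if not reached. GI50 marks 50% less growth.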 The source made the active and inactive calls. Rule as the data show it: active = GI50 up to about 1.1 µM and inactive = higher.

Assays:
Assay in all cases: growth of human tumour cells (NCI), 48 h
LXFL 529 = test system: LXFL 529
COLO 205 = test system: COLO 205
SK-MEL-5 = test system: SK-MEL-5
SR = test system: SR
DLD-1 = test system: DLD-1
SNB-75 = test system: SNB-75
HCT-116 = test system: HCT-116
NCI-H522 = test system: NCI-H522
OVCAR-5 = test system: OVCAR-5
RXF 631 = test system: RXF 631
SNB-78 = test system: SNB-78
HCT-15 = test system: HCT-15
RPMI-8226 = test system: RPMI-8226
UACC-257 = test system: UACC-257
IGROV-1 = test system: IGROV-1
DMS-114 = test system: DMS-114
HOP-62 = test system: HOP-62
HT-29 = test system: HT-29
Malme-3M = test system: Malme-3M
NCI-H460 = test system: NCI-H460
SF-268 = test system: SF-268
OVCAR-8 = test system: OVCAR-8
OVCAR-4 = test system: OVCAR-4
A549 = test system: A549
HOP-18 = test system: HOP-18
TK-10 = test system: TK-10
SF-539 = test system: SF-539
KM12 = test system: KM12
HOP-92 = test system: HOP-92
786-0 = test system: 786-0
SK-MEL-28 = test system: SK-MEL-28
SW-620 = test system: SW-620
SF-295 = test system: SF-295
DMS-273 = test system: DMS-273
M19-MEL = test system: M19-MEL
SN12C = test system: SN12C
SK-OV-3 = test system: SK-OV-3
U-251 = test system: U-251
HCC 2998 = test system: HCC 2998
MOLT-4 = test system: MOLT-4
A498 = test system: A498
UO-31 = test system: UO-31
NCI-H23 = test system: NCI-H23
NCI-H226 = test system: NCI-H226
OVCAR-3 = test system: OVCAR-3
ACHN = test system: ACHN
SK-MEL-2 = test system: SK-MEL-2
M14 = test system: M14
KM-20L2 = test system: KM-20L2
NCI/ADR-RES = test system: NCI/ADR-RES
MDA-MB-435 = test system: MDA-MB-435
DU-145 = test system: DU-145
MDA-N = test system: MDA-N
HL-60 = test system: HL-60
K562 = test system: K562
T47D = test system: T47D
CAKI-1 = test system: CAKI-1
EKVX = test system: EKVX
SNB-19 = test system: SNB-19
MDA-MB-231 = test system: MDA-MB-231
RXF 393 = test system: RXF 393
UACC-62 = test system: UACC-62
CCRF-CEM = test system: CCRF-CEM
BT-549 = test system: BT-549
PC-3 = test system: PC-3
LOX IMVI = test system: LOX IMVI
MCF7 = test system: MCF7
Hs-578T = test system: Hs-578T

Measured: GI50

CC1(c2ccccc2)CC(c2cccc([N+](=O)[O-])c2)=NO1 (stereo unspecified)
inactive: LXFL 529 94.2 µM | COLO 205 > 100 µM | SK-MEL-5 56.2 µM | SR > 100 µM | DLD-1 > 100 µM | SNB-75 > 100 µM | HCT-116 > 100 µM | NCI-H522 30.1 µM | OVCAR-5 > 100 µM | RXF 631 > 100 µM | SNB-78 > 100 µM | RPMI-8226 51.3 µM | UACC-257 > 100 µM | IGROV-1 > 100 µM | DMS-114 44.2 µM | HOP-62 > 100 µM | HT-29 73.1 µM | Malme-3M > 100 µM | NCI-H460 > 100 µM | SF-268 > 100 µM | OVCAR-8 > 100 µM | OVCAR-4 > 100 µM | A549 > 100 µM | HOP-18 > 100 µM | TK-10 > 100 µM | SF-539 > 100 µM | KM12 > 100 µM | HOP-92 > 100 µM | 786-0 > 100 µM | SK-MEL-28 > 100 µM | SW-620 > 100 µM | SF-295 47.8 µM | DMS-273 > 100 µM | M19-MEL > 100 µM | SN12C > 100 µM | SK-OV-3 > 100 µM | U-251 > 100 µM | HCC 2998 > 100 µM | MOLT-4 56.2 µM | A498 > 100 µM | UO-31 82.8 µM | NCI-H23 89.1 µM | NCI-H226 > 100 µM | OVCAR-3 > 100 µM | ACHN > 100 µM | SK-MEL-2 > 100 µM | M14 > 100 µM
> 100 µM: HCT-15

COC1=C(OC)C(=O)c2cc(C)c(=O)c(C)cc2C1=O
inactive: LXFL 529 4.36 µM | COLO 205 19.1 µM | SK-MEL-5 15.8 µM | KM-20L2 21.1 µM | SR 2.65 µM | DLD-1 22.3 µM | SNB-75 18.4 µM | NCI/ADR-RES 17 µM | HCT-116 15.3 µM | NCI-H522 14.6 µM | OVCAR-5 31.3 µM | RXF 631 50.6 µM | SNB-78 18.5 µM | MDA-MB-435 1.8 µM | RPMI-8226 5.69 µM | DU-145 16.9 µM | UACC-257 11.2 µM | IGROV-1 18.6 µM | DMS-114 3.27 µM | HOP-62 21.3 µM | HT-29 22.1 µM | MDA-N 2.53 µM | Malme-3M 17.1 µM | NCI-H460 24.7 µM | SF-268 13.6 µM | HL-60 2.82 µM | OVCAR-8 17.3 µM | OVCAR-4 2.83 µM | A549 20.2 µM | K562 3.19 µM | T47D 28.6 µM | HOP-18 16.3 µM | CAKI-1 17.3 µM | EKVX 17.3 µM | TK-10 19.1 µM | SF-539 18.2 µM | SNB-19 18.4 µM | KM12 17.6 µM | HOP-92 16.4 µM | 786-0 11.9 µM | SK-MEL-28 16.5 µM | MDA-MB-231 7.94 µM | RXF 393 15.3 µM | SW-620 8.61 µM | UACC-62 13.4 µM | SF-295 32.6 µM | DMS-273 25.4 µM | CCRF-CEM 2.45 µM | BT-549 15.2 µM | M19-MEL 3.37 µM | SN12C 2.81 µM | SK-OV-3 22 µM | U-251 17.2 µM | PC-3 20.3 µM | HCC 2998 22.4 µM | MOLT-4 2.27 µM | LOX IMVI 11.2 µM | A498 24.2 µM | UO-31 13.8 µM | NCI-H23 16.9 µM | MCF7 17.9 µM | NCI-H226 18.6 µM | OVCAR-3 10.4 µM | ACHN 14.8 µM | Hs-578T 23.1 µM | SK-MEL-2 17.3 µM | M14 16.9 µM
21.3 µM: HCT-15
